Data set [1] deals with cyanobacteria. The conditions noted are these: cited from earlier work.
Data set [2] in a line: UV-Vis absorption of scytoneman-like compounds. The data set is classed as physicochemical. The source says: The compounds were isolated from cyanobacteria collected from a small saltern pond located just behind the primary dune in Mrizika, Morocco (GPS coordinates: 32.955807, −8.779638). […] To explore the chemodiversity of the mat, the biomass was freeze-dried (650 g, d.w.) and extracted using a dichloromethane/methanol mixture (2:1). The crude extract was then fractionated by vacuum liquid chromatography using a solvent gradient with increasing polarity from 100% hexanes to 100% ethyl acetate and then to 100% MeOH. […] The filtered solution was subfractionated through flash chromatography using a gradient of hexanes, ethyl acetate to methanol.

Data set [3] concerns SY-SH5Y (neuroblastoma cell line). As to the kind of experiment: Cytotoxicity tests using the MTT assay. The data set is classed as cell-based. Conditions: final concentration 10 μg mL^−1. As for the experimental part: 1% DMSO (v/v) was used as negative control and 20% DMSO (v/v) as a positive control;
The pure compounds were also tested in cytotoxicity assays using the MTT assay.
(Tetrazolium dyes change colour on reduction, which living cells bring about.)

For data set [4], the system named is Staphylococcus aureus (ATCC 29213). As to the kind of experiment: Antimicrobial assay, disc diffusion method. It is filed as cell-based. Conditions: final concentration of 15 μg mL^−1; S. aureus ATCC 29213. As for the experimental part: Kanamycin and ampicillin (15 μg) were used as positive controls.
The pure compounds were also tested in antimicrobial assays using the disc diffusion method. […] Apart from its sunscreen function, the previously known scytonemins have been associated with anticancer and antioxidative activity, but no antimicrobial activity has ever been reported for any of the scytoneman family of compounds until now.
A general note: Agar diffusion results depend on both activity and mobility in agar.

[5] abbreviates: Table 1, identification by LC-HRMS analysis.

The cell viability is a read-out of living cells in per cent, often relative to untreated cells. High values mean less harm to the cells, low ones more harm to the cells.

scytonemin: the “reduction of the UV-A radiation that penetrates the cells” value in data set [1] is “up to 90%”.

Turning to 3,3′-dihydroxyscytonemin [585.2061], the Main absorbance regions result was “UVB” in data set [2] (setting [5]) and “UVB” in data set [2] (Table 2, UV-Vis spectra). Moreover, the Max wavelength in data set [2] (maximum absorption wavelengths, UV-Vis spectra) is 293 nm.

On to 3′-hydroxyscytonemin, for which the figures for the cell viability in data set [3] (24 h of exposure) and in data set [3] (48 h of exposure) were 37.8% and 18.3%, respectively. Further, in data set [4], the antimicrobial activity result is recorded as “presented antimicrobial activity”. The Main absorbance regions entry was “UVA” in data set [2] (setting [5]) and “UVA” in data set [2] (Table 2, UV-Vis spectra).

On to “3′-hydroxy-3-methoxyscytonemin [595.1864]”, for which the Main absorbance regions entry in data set [2] (setting [5]) is “Green/blue”; in data set [2] (Table 2, UV-Vis spectra) it was “Green/blue”.
